In experiment [1] the test system is intracellular chloride ([Cl-]i) of primary cortical neurons. In words: Secondary screen: Clomeleon chloride imaging in cultured primary cortical neurons. It counts as cell-based, mouse. Particulars: for Chloride [Cl—]i, value left of '=>': starting value before the arrow; for Chloride [Cl—]i, value right of '=>': value after the arrow (with compound). Here is the method:
(§1) The primary screen encompassed three levels of LUC measurements. The first level of screening yielded a total of 137 compounds with cut-off RLU>125% LUC activity. These 137 compounds were subject to second round of screening, which was carried out in duplicate independent assays to yield the top 103 compounds sorted for highest RLU. The 103 compounds were then subjected to a third round of screening carried out in duplicate independent assays to yield the top 40 compounds which were again ranked. The best 22 of these 40 compounds (ranked for highest RLU activity) were subjected to secondary screening: cultured neurons were treated with the 22 compounds; RT-qPCR and Clomeleon imaging methodologies (Yeo et al., 2009, J Neurosci 29: 14652-14662) were used to determine effects of compounds on Kcc2 mRNA expression and [Cl-]i, respectively. Each compound was ranked based on composite scores from primary and secondary screening.
(§2) Chloride imaging of primary cultured cortical neurons was conducted as previously described (Kuner and Augustine, 2000, Neuron 27: 447-459; Liedtke et al., 2013, Small (Weinheim an der Bergstrasse, Germany) 9: 1066-1075; Yeo et al., 2009, J Neurosci 29: 14652-14662). A Clomeleon expression plasmid was transfected into primary cortical neurons by electroporation (Amaxa Nucleofector Device). Transfected neurons were verified by yellow fluorescent protein (YFP) fluorescence, and ratiometric images (excitation at λ=434 nm, dual emission at λ=485 and 535 nm; for resting chloride, six stable frames at […] were captured, which were averaged) were acquired using RATIOTOOL program. Calibration of Clomeleon signals (535 nm/485 nm emission ratio) was performed by using tributyltin-nigericin to establish a standard curve, which was then normalized for measured intraneuronal pH to take into account the pH sensitivity of Clomeleon.
(§3) 1057 compounds were screened and contained in two NCI libraries: NCI compound libraries Natural Products II and Mechanistic Diversity Set II (FIG. 1, Table 2), related to inhibition of growth of malignantly transformed cells. […] Iterative screening followed by measurements of Kcc2 mRNA (RT-qPCR) and intracellular chloride ([Cl-]i) (clomeleon chloride indicator protein) led to decreasing numbers of re confirmed hits, which eventually identified four (4) “winner” compounds listed in the bottom panel of FIG. 1.

A further experiment relates to Kcc2 gene expression. In words: Composite ranking from primary and secondary screening. Type of experiment: cell-based, mouse. Particulars: for Total Score: sum of Luciferase, RT-qPCR and Clomeleon scores; for Top 2 Hits: winner = top 2 of each library by total score. Here is the method: as §1, §3
(In general: In qPCR the cycle at which signal appears reflects the starting amount.)

A further experiment deals with Kcc2 promoter. Nature of the experiment: Primary screen: luciferase (LUC) activity in primary cortical neurons from Kcc2-LUC transgenic mice. Type of experiment: cell-based, mouse. Particulars: rank score within compound library; compounds 100 nM for 48 h. On the procedure:
Cell suspension was plated at a density of 1×10^6 cells/ml onto 24-well tissue-culture dishes coated with poly-d-lysine.
LUC activity was then determined for each compound. Culture supernatant was removed and cells were lysed with 150 μl lysis buffer (Targeting Systems CA, USA cat. CLR1). LUC activity was measured with a RedLuciferase Assay kit (Targeting Systems cat. FLAR) according to the manufacturer's instructions. A Veritas microplate luminometer was used to measure luminescence; for each treatment triplicates of 40 μl cell lysates (from each 24-well tissue-culture dish) were used and 25 μl substrate was injected per well. […] Relative Light units (RLU) for each treatment was derived from Light Units (compound treatment)/vehicle treatment (0.5% DMSO).
The primary screen encompassed three levels of LUC measurements. […] Each compound was ranked based on composite scores from primary and secondary screening.

The test system of a further experiment is Kcc2 mRNA. Nature of the experiment: Secondary screen: Kcc2 RT-qPCR in cultured primary cortical neurons. It counts as cell-based, mouse. Particulars: rank score within compound library. Here is the method:
as §1, with “Each compound was ranked based on composite scores from primary and secondary screening.” left out
Total RNA was isolated from cultured cell samples using Directzol RNA miniprep kit (ZymoResearch). […] Gene expression was assessed by quantitative real-time PCR using 2×SYBR Green Master Mix (Qiagen) and a three-step cycling protocol (anneal at 60° C./elongate at 72° C., denature at 95° C.). […] The amount of target messenger RNA (mRNA) in the experimental group relative to that in the control was determined from the resulting fluorescence and threshold values (Ct) using the […] method. […] was used as a housekeeping gene. […]

In the next experiment the test system is neuronal [Cl-]i. In words: Clomeleon [Cl-]i measurement in rat primary cortical neurons. Type of experiment: cell-based. Particulars: VU0240551 2.5 μM, both vehicle-treated and KP-treated rat neurons. On the procedure:
as §2
Results represent the average mRNA expression of multiple independent neuronal cultures [n=12 (control), n=4 (0.1 μM KP), n=3 (0.2 μM KP), n=10 (0.5 μM KP). *p<0.05, **p<0.01, ****p<0.0001, one-way ANOVA].
It is shown that KP enhanced Kcc2 gene expression and KCC2 chloride extrusion function with rather rapid kinetics within 3 h time frame.

A further experiment has as its system MDA MB-231. In words: MTT cell viability assay. It counts as cell-based. Particulars: KP 100 nM and/or paclitaxel 1 nM or 10 nM, 72 hours. On the procedure:
(§4) Two commonly used breast cancer cell lines (MCF7 and MDA MB-231) and one melanoma cell line (A375) were used in this study. 100 nM Kenpaullone (KP) and/or 1 nM or 10 nM paclitaxel (Taxol) were administered to the cell lines to test their impact on cell viability. Each bar represents an average of 6 experiments, and error bars represent SEM. Cell line maintenance and MTT cell viability assay were done according to Xiao et al. (2018, BMC Cancer, 18(1): 675). Cell viability was assessed after 72 hours.
(Tetrazolium dyes change colour on reduction, which living cells bring about.)

For another experiment, the system named is MCF7. In words: MTT cell viability assay. Particulars: KP 100 nM and/or paclitaxel 1 nM or 10 nM, 72 hours. It counts as cell-based. Here is the method: as §4
The next experiment relates to A375. Nature of the experiment: MTT cell viability assay. Particulars: KP 100 nM and/or paclitaxel 1 nM or 10 nM, 72 hours. Type of experiment: cell-based. On the procedure:
as §4

Here are results for twelve compounds from patent US20230056189A1, “COMPOSITIONS AND METHODS FOR TREATMENT OF PATHOLOGIC PAIN ASSOCIATED WITH MALIGNANT GROWTH DISORDER” (Duke University, priority 2020, published 2023).

Turning to `Cc1cc(-c2nc3ccccc3s2)ccc1N` [4-(1,3-Benzothiazol-2-yl)-2-methylaniline], in experiment [1], the “Chloride [Cl—]i, value left of '=>'” value was 82 mM and the “Chloride [Cl—]i, value right of '=>'” value is recorded as 38 mM. In the experiment on Kcc2 gene expression, the “Total Score” value stood at 13.

For `CC(O)CCC(=O)c1ccoc1` (stereo not shown) [4-Ipomeanol], in experiment [1], the “Chloride [Cl—]i, value left of '=>'” value is reported as 74 mM and the “Chloride [Cl—]i, value right of '=>'” value turned out to be 32 mM. Moreover, the “Total Score” value in the experiment on Kcc2 gene expression is 8.

`N=C1N=CN=C2C([C@@H]3O[C@H](CO)[C@@H](O)[C@H]3O)=CN=C12` [9-Deazaadenosine]: in experiment [1], the “Chloride [Cl—]i, value left of '=>'” value was found to be 82 mM and the “Chloride [Cl—]i, value right of '=>'” value was 40 mM. For the same compound, the “Total Score” value in the experiment on Kcc2 gene expression is recorded as 11.

`CC(=O)Nc1ccc(-c2nc3ccccc3s2)cc1` [NSC33006, N-[4-(1,3-benzothiazol-2-yl)phenyl]acetamide]: in experiment [1], the “Chloride [Cl—]i, value left of '=>'” value worked out at 74 mM and the “Chloride [Cl—]i, value right of '=>'” value came to 28 mM. Further, in the experiment on Kcc2 gene expression, the “Total Score” value was 5 and the “Top 2 Hits” value is “winner”.

As to `Cc1ccc(NC(=O)c2cccc([N+](=O)[O-])c2O)c(C)c1` [NSC79456, n-(2,4-Dimethylphenyl)-2-hydroxy-3-nitrobenzamide], in experiment [1], the “Chloride [Cl—]i, value left of '=>'” value amounted to 74 mM and the “Chloride [Cl—]i, value right of '=>'” value worked out at 24 mM. Further, in the experiment on Kcc2 gene expression, the “Total Score” value is reported as 5 and the “Top 2 Hits” value is recorded as “winner”.

For the compound `CC(=O)C1CCCC(=O)/C=C/C(=O)O1` (stereo not shown) [NSC180515, 2-Acetyl-2,3,4,5-tetrahydrooxonine-6,9-dione], in experiment [1], the “Chloride reduction (%)” value turned out to be 32%; the “Chloride [Cl—]i, value left of '=>'” value amounted to 68 mM; the “Chloride [Cl—]i, value right of '=>'” value is 22 mM. Besides, the “Clomeleon Score (duplicates)” value in experiment [1] (rank score within compound library) was 1. Moreover, in the experiment on Kcc2 gene expression, the “Total Score” value stood at 6 and the “Top 2 Hits” value is listed as “winner”. Besides, the “Luciferase Score (triplicates)” value with Kcc2 promoter is 4. In addition, in the experiment with Kcc2 mRNA, the “RT-qPCR Score (triplicates)” value is recorded as 1.

On to `Cc1csc(NC(=O)CSc2ccc(-c3ccccc3)nn2)n1` [VU0240551], for which, in the experiment with neuronal [Cl-]i, the “[Cl-]i with add-on KCC2-transport blocker” value is given as not below 120 mM.

On to `COc1ccc(C[C@H]2NC[C@H](O)[C@H]2OC(C)=O)cc1` [anisomycine], for which, in experiment [1], the “Chloride [Cl—]i, value left of '=>'” value is listed as 75 mM and the “Chloride [Cl—]i, value right of '=>'” value stood at 43 mM.

Take `C[C@@]12C(=O)OC(=O)[C@]1(C)[C@H]1CC[C@@H]2O1` [cantharidine]: in experiment [1], the “Chloride [Cl—]i, value left of '=>'” value was found to be 68 mM and the “Chloride [Cl—]i, value right of '=>'” value was found to be 33 mM.

On to `CC1(C)CCC[C@]2(C)C3=C(CC[C@@H]12)C(=O)OC3` [confertifoline], for which, in experiment [1], the “Chloride [Cl—]i, value left of '=>'” value is 75 mM and the “Chloride [Cl—]i, value right of '=>'” value is given as 42 mM.

For the compound `CC(=O)O[C@H]1C(=O)[C@@]2(C)[C@H]([C@H](OC(=O)c3ccccc3)[C@]3(O)C[C@H](OC(=O)[C@H](O)[C@@H](NC(=O)c4ccccc4)c4ccccc4)C(C)=C1C3(C)C)[C@]1(OC(C)=O)CO[C@@H]1C[C@@H]2O` [paclitaxel], the “cell viability (MTT)” value in the experiment with MDA MB-231, in the experiment on MCF7 and with A375 was “sensitive” in each case.

As to `COc1cc2c3c(c4ccc(OC)c(OC)c4c2cc1OC)CN1CCC[C@H]1C3` [tylocrebrine], in experiment [1], the “Chloride [Cl—]i, value left of '=>'” value was determined as 75 mM and the “Chloride [Cl—]i, value right of '=>'” value turned out to be 39 mM.
